# Results as given in article PMC8148468, “Shikimic acid protects skin cells from UV-induced senescence through activation of the NAD+-dependent deacetylase SIRT1” (Aging (Albany NY), 2021).
# What was measured:
# Format in all cases: cell-based, human
# [1] = system: H3K9ac (the target of SIRT1, SIRT2 and SIRT6); assay: Sirtuin activity assay in HDF: H3K9ac levels (Western blot); settings: HDF treated 24h;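 note: screen looked for decreased acetylation as a sign of sirtuin activation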
# Procedure: Figure 1 (A) Schematic representation of the compound testing for sirtuin activity evaluation in HDF. Cells were treated with or without the compounds for 24h and harvested for analysis. […] (C) Western Blot analysis and (D) quantification of H4K16ac and H3K9ac levels in cells treated with Resveratrol or Shikimic acid at the indicated concentrations. H4K16 and H3K9 levels were normalized to H4 and H3 levels respectively. Student T-test, *p<0.05, **p<0.01, ***p<0.001.
# HDFs were plated in 100x20 mm2 cell culture plates and after 24h, fresh cell culture medium containing the compounds was added. After 24h, cells were detached with cell scrapers, harvested, and processed for qPCR or western blot.
# Protein levels were analyzed as previously described. Cells were directly lysed in 1x Laemmli Buffer (Bio-Rad, USA), incubated at 95° C and centrifuged. Supernatant was subjected to SDS-polyacrylamide gel electrophoresis, and successive steps were performed as described. The list of antibodies used is included in Supplementary Table 2.
# [2] = system: HAS2 (hyaluronic acid synthase 2); assay: UVB-induced senescence assay: HAS2 gene expression (qPCR); settings: UVB-irradiated HDF
# Procedure: In the second approach, we established a method for inducing senescence in these cells with 2 cycles of UVB irradiation 72h apart (Figure 2A). The use of UVA to induce senescence was discarded due to its considerably longer time requirement, being unsuitable to screen 30 compounds within a reasonable period. Cells were treated with these compounds throughout the duration of the assay and cellular senescence was monitored with two markers: accumulation of SA-β-galactosidase (SA-β-Gal) activity, and the decrease in expression of HAS2 (hyaluronic acid synthase 2), a previously reported marker of skin senescence.
# Figure 2 (A) Schematic representation of the protocol for senescence induction using UVB irradiation. Cells were treated -/+ the compounds from day 1 to 7 after seeding, irradiated with UVB on days 2 and 5 and harvested for analysis on day 7. […] (C) Phase-contrast (left column) and bright field (right column) microscope images of SA-β-Gal staining showing non-irradiated cells, UVB-irradiated cells non-treated and treated with Gallic acid or Shikimic acid at the indicated concentrations. (D) Percentage of SA-β-Gal positive cells and (E) Relative HAS2 mRNA levels in non-irradiated cells, UVB-irradiated cells and UVB-irradiated cells treated with Gallic acid or Shikimic acid at the indicated concentrations. Student T-test, *p<0.05, **p<0.01, ***p<0.001.
# RNA was extracted from cell pellets using the Total RNA Purification Kit (Norgen, Canada), according to the manufacturer’s protocol. Extracted RNA was quantified using a NanoDrop® ND-1000 UV-Vis Spectrophotometer (Thermo Fisher Scientific, USA) and 300 ng of RNA were retrotranscribed to cDNA using the PrimeScriptTM RT reagent kit (Takara Bio Inc., Japan). cDNA was diluted 1/10 in ultrapure water and qPCR mix was prepared by adding cDNA (12 ng), SYBR green supermix (Bio Rad, USA), forward and reverse primers (0.2μM). The primers and their respective sequences are listed in Supplementary Table 1. qPCR protocol included one step at 95° C for 30 s, 40 cycles at 95° C for 10s, and 60° C for 1min. The results were analyzed with Bio-Rad CFX Manager software. BACT was used as a housekeeping gene to normalize gene expression.
# Senescence induction by UVB irradiation For the non-irradiation control conditions, HDF were […]
# After 24h, culture medium was removed and well plates. After 24h, culture medium was removed replaced by fresh cell culture medium containing the and replaced with fresh cell culture medium containing compounds at different concentrations. After 24h, the compounds at different concentrations. […]
# cell culture medium was removed, and cells were cells/plate in fresh cell culture medium containing the irradiated at 25 mJ/cm2 of UVB light (312 nm) in a Bio- compound in 6-well plates. After 3 days, cells were […]
# amount of PBS. PBS was then removed and fresh cell fresh cell culture medium containing the compound in culture medium with the compound was added to each 6-well plates. After 2 days, cells were processed well. After 3 days, cells were irradiated again under the according to the qPCR, β-Gal staining, apoptosis, cell same conditions. After 2 days, cells were processed cycle or immunofluorescence protocols. according to the qPCR, β-Gal staining, apoptosis, cell cycle or immunofluorescence protocols.
# [3] = system: HDF cells; assay: SRB and Trypan blue cell viability assays; settings: Shikimic acid 5, 10, 25 and 50 mM, 24h
# Procedure: Student T-test, *p<0.05, **p<0.01, ***p<0.001.
# The protocol for senescence induction using UVB irradiation is described in the Supplementary Methods. SA-β-Gal staining, WST-1, sulforhodamine B (SRB) and trypan blue assays were performed as previously described. For the siRNA experiments, the protocol for senescence induction using UVB irradiation was the same as in the Supplementary Methods. Specific siRNA (Horizon discovery, UK) for SIRT1, SIRT2, SIRT6, BiP or scramble siRNA were incubated for 6 hours before each irradiation step.
# [4] = system: p21; assay: p21 mRNA levels (qPCR); settings: UVB-irradiated HDF, SA treatment
# Procedure: RNA was extracted from cell pellets using the Total RNA Purification Kit (Norgen, Canada), according to the manufacturer’s protocol. […] The primers and their respective sequences are listed in Supplementary Table 1. qPCR protocol included one step at 95° C for 30 s, 40 cycles at 95° C for 10s, and 60° C for 1min. The results were analyzed with Bio-Rad CFX Manager software. BACT was used as a housekeeping gene to normalize gene expression. page 6: Supplementary Figure 6. Quantification (n=3) of the percentage of cells in each cell cycle phase and poliploydies in (A) non-irradiated cells treated with Shikimic acid at the indicated doses and (B) UVB-irradiated cells treated with Shikimic acid at the indicated doses, following the senescence induction method described in Figure 2A. (C) Relative p21 mRNA levels (n=3) in UVB-irradiated cells treated with Shikimic acid at the indicated doses, following the senescence induction method described in Figure 2A. (D) Second (PC-2) and third (PC-3) principal components in the fingerprint region (1800–950 cm−1) from the samples mentioned in Figure 4G. Student T-test, *p<0.05, **p<0.01, ***p<0.001. www.aging-us.com 6 AGING (1 picture or pasted object on this page, not shown here)
structure (smiles),measurement,setting,value
O=C(O)C1=C[C@@H](O)[C@@H](O)[C@H](O)C1 [Shikimic acid],effect on H3K9ac levels,[1],induced a similar effect on both targets
same,HAS2 expression,[2],increase in HAS2 expression
same,cytotoxicity (SRB/trypan blue assay),[3],no differences in cytotoxicity
same,p21 mRNA levels,[4],did not observe any clear effect
